In US12077503B2, “Substituted cyclic amides and their use as herbicides” (FMC CORPORATION, priority 2015, dated 2024):

Columns and labels:
Format in all cases: in vivo
Kochia (Kochia scoparia) [1] = assay: Test A preemergence; conditions: Bassia scoparia, pre-emergence, 240 h, 0 to 100 scale where 0 is no effect and 100 is complete control, read-out: Kochia plant response rating
Procedure, shortened: (§1)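 Compounds were formulated in a non-phytotoxic solvent mixture with surfactant and applied as a preemergence directed soil spray after seeding, or sprayed postemergence over plants 2 to 10 cm tall at the one- to two-leaf stage. Evaluation after about 10 d compared treated with untreated controls, using a scale from 0 (no effect) to 100 (complete control).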

[2] = tested on: barnyardgrass (Echinochloa crus-galli); assay: Test A preemergence; conditions: Echinochloa crus-galli, pre-emergence, 240 h, 0 to 100 scale where 0 is no effect and 100 is complete control, read-out: Barnyardgrass plant response rating
Procedure, shortened: as §1

[3] = tested on: giant foxtail (Setaria faberii); assay: Test A preemergence; conditions: Setaria faberi, pre-emergence, 240 h, 0 to 100 scale where 0 is no effect and 100 is complete control, read-out: Foxtail, Giant plant response rating
Procedure, shortened: as §1

[4] = tested on: pigweed (Amaranthus retroflexus); assay: Test A preemergence; conditions: Amaranthus retroflexus, pre-emergence, 240 h, 0 to 100 scale where 0 is no effect and 100 is complete control, read-out: Pigweed plant response rating
[5] = tested on: ragweed (common ragweed, Ambrosia elatior); assay: Test A preemergence; conditions: Ambrosia artemisiifolia, pre-emergence, 240 h, 0 to 100 scale where 0 is no effect and 100 is complete control, read-out: Ragweed plant response rating
Procedure, shortened: as §1

[6] = tested on: ryegrass, Italian (Italian ryegrass, Lolium multiflorum); assay: Test A preemergence; conditions: Lolium multiflorum, pre-emergence, 240 h, 0 to 100 scale where 0 is no effect and 100 is complete control, read-out: Ryegrass, Italian plant response rating
Procedure, shortened: as §1

Kochia (Kochia scoparia) [7] = assay: Test A postemergence; conditions: Bassia scoparia, post-emergence, 240 h
Procedure, shortened: as §1

[8] = tested on: barnyardgrass (Echinochloa crus-galli); assay: Test A postemergence; conditions: Echinochloa crus-galli, post-emergence, 240 h
Procedure, shortened: as §1

[9] = tested on: blackgrass (Alopecurus myosuroides); assay: Test A postemergence; conditions: Alopecurus myosuroides, post-emergence, 240 h
Procedure, shortened: as §1

corn (Zea mays) = assay: Test A postemergence; conditions: Zea mays, post-emergence, 240 h
Procedure, shortened: as §1

[10] = tested on: giant foxtail (Setaria faberii); assay: Test A postemergence; conditions: Setaria faberi, post-emergence, 240 h
Procedure, shortened: as §1

[11] = tested on: pigweed (Amaranthus retroflexus); assay: Test A postemergence; conditions: Amaranthus retroflexus, post-emergence, 240 h
Procedure, shortened: as §1

[12] = tested on: ragweed (common ragweed, Ambrosia elatior); assay: Test A postemergence; conditions: Ambrosia artemisiifolia, post-emergence, 240 h
Procedure, shortened: as §1

[13] = tested on: ryegrass, Italian (Italian ryegrass, Lolium multiflorum); assay: Test A postemergence; conditions: Lolium multiflorum, post-emergence, 240 h
Procedure, shortened: as §1

[14] = tested on: wheat (Triticum aestivum); assay: Test A postemergence; conditions: Triticum aestivum, post-emergence, 240 h
Procedure, shortened: as §1

[15] = tested on: barnyardgrass (Echinochloa crus-galli); assay: Test B flooded paddy test; conditions: Echinochloa crus-galli, 250 g ai/ha, Flood; 0 to 100 scale where 0 is no effect and 100 is complete control; read-out: Barnyardgrass plant response rating
Procedure, shortened: (§2)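 Evaluation by eye, against controls, occurred 13–15 d post-treatment in a greenhouse, using a 0 (no effect) to 100 (complete control) scale. Application was into the paddy water, 3 cm deep over the soil, on 2-leaf plants.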

[16] = tested on: ducksalad (Heteranthera limosa); assay: Test B flooded paddy test; conditions: Heteranthera limosa, 250 g ai/ha, Flood; 0 to 100 scale where 0 is no effect and 100 is complete control; read-out: Ducksalad plant response rating
Procedure, shortened: as §2

rice (Oryra sativa) = assay: Test B flooded paddy test; conditions: Oryza sativa, 250 g ai/ha, Flood; 0 to 100 scale where 0 is no effect and 100 is complete control; read-out: Rice plant response rating
Procedure, shortened: as §2

[17] = tested on: sedge, umbrella (small-flower umbrella sedge, Cyperus difformis); assay: Test B flooded paddy test; conditions: Cyperus difformis, 250 g ai/ha, Flood; 0 to 100 scale where 0 is no effect and 100 is complete control; read-out: Sedge, Umbrella plant response rating
Procedure, shortened: as §2

[18] = 125 g ai/ha, preemergence, approx. 10 d

## CN1C[C@H](c2cc(C(F)F)cs2)[C@@H](C(=O)Nc2cccc(F)c2C#N)C1=O [Compound 1092]
Kochia (Kochia scoparia) [1]; 31 g ai/ha, Preemergence
  pest or weed control at 31 g/ha: 70%
Kochia (Kochia scoparia) [1]; [18]
  pest or weed control at 125 g/ha: 0%
[2]; 31 g ai/ha, Preemergence
  pest or weed control at 31 g/ha: 40%
[2]; [18]
  pest or weed control at 125 g/ha: 90%
[3]; 31 g ai/ha, Preemergence
  pest or weed control at 31 g/ha: 90%
[3]; [18]
  pest or weed control at 125 g/ha: 100%
[4]; 31 g ai/ha, Preemergence
  pest or weed control at 31 g/ha: 0%
[4]; [18]
  pest or weed control at 125 g/ha: 0%
[5]; 31 g ai/ha, Preemergence
  pest or weed control at 31 g/ha: 0%
[5]; [18]
  pest or weed control at 125 g/ha: 40%
[6]; 31 g ai/ha, Preemergence
  pest or weed control at 31 g/ha: 0%
[6]; [18]
  pest or weed control at 125 g/ha: 0%
Kochia (Kochia scoparia) [7]; 125 g ai/ha, postemergence, visual injury on 0 to 100 scale (0 no effect, 100 complete control), approx. 10 d, read-out: Kochia plant response rating
  pest or weed control at 125 g/ha: 20%
Kochia (Kochia scoparia) [7]; Postemergence, 31 g ai/ha, visual injury after approx. 10 d, 0 to 100 scale, 0 no effect, 100 complete control, read-out: Plant response rating, Kochia
  pest or weed control at 31 g/ha: 0%
[8]; 125 g ai/ha, postemergence, visual injury on 0 to 100 scale (0 no effect, 100 complete control), approx. 10 d, read-out: Barnyardgrass plant response rating
  pest or weed control at 125 g/ha: 90%
[8]; Postemergence, 31 g ai/ha, visual injury after approx. 10 d, 0 to 100 scale, 0 no effect, 100 complete control, read-out: Plant response rating, Barnyardgrass
  pest or weed control at 31 g/ha: 50%
[9]; 125 g ai/ha, postemergence, visual injury on 0 to 100 scale (0 no effect, 100 complete control), approx. 10 d, read-out: Blackgrass plant response rating
  pest or weed control at 125 g/ha: 20%
[9]; Postemergence, 31 g ai/ha, visual injury after approx. 10 d, 0 to 100 scale, 0 no effect, 100 complete control, read-out: Plant response rating, Blackgrass
  pest or weed control at 31 g/ha: 0%
Corn (Zea mays); 125 g ai/ha, postemergence, visual injury on 0 to 100 scale (0 no effect, 100 complete control), approx. 10 d, read-out: Corn plant response rating
  plant injury at 125 g/ha: 0%
Corn (Zea mays); Postemergence, 31 g ai/ha, visual injury after approx. 10 d, 0 to 100 scale, 0 no effect, 100 complete control
  Corn plant response rating (crop injury, 0 = no effect, 100 = complete kill) at 31 g/ha: 0%
[10]; 125 g ai/ha, postemergence, visual injury on 0 to 100 scale (0 no effect, 100 complete control), approx. 10 d, read-out: Foxtail, Giant plant response rating
  pest or weed control at 125 g/ha: 90%
[10]; Postemergence, 31 g ai/ha, visual injury after approx. 10 d, 0 to 100 scale, 0 no effect, 100 complete control, read-out: Plant response rating, Foxtail, Giant
  pest or weed control at 31 g/ha: 30%
[11]; 125 g ai/ha, postemergence, visual injury on 0 to 100 scale (0 no effect, 100 complete control), approx. 10 d, read-out: Pigweed plant response rating
  pest or weed control at 125 g/ha: 20%
[11]; Postemergence, 31 g ai/ha, visual injury after approx. 10 d, 0 to 100 scale, 0 no effect, 100 complete control, read-out: Plant response rating, Pigweed
  pest or weed control at 31 g/ha: 0%
[12]; 125 g ai/ha, postemergence, visual injury on 0 to 100 scale (0 no effect, 100 complete control), approx. 10 d, read-out: Ragweed plant response rating
  pest or weed control at 125 g/ha: 50%
[12]; Postemergence, 31 g ai/ha, visual injury after approx. 10 d, 0 to 100 scale, 0 no effect, 100 complete control, read-out: Plant response rating, Ragweed
  pest or weed control at 31 g/ha: 0%
[13]; 125 g ai/ha, postemergence, visual injury on 0 to 100 scale (0 no effect, 100 complete control), approx. 10 d, read-out: Ryegrass, Italian plant response rating
  pest or weed control at 125 g/ha: 0%
[13]; Postemergence, 31 g ai/ha, visual injury after approx. 10 d, 0 to 100 scale, 0 no effect, 100 complete control, read-out: Plant response rating, Ryegrass, Italian
  pest or weed control at 31 g/ha: 0%
[14]; 125 g ai/ha, postemergence, visual injury on 0 to 100 scale (0 no effect, 100 complete control), approx. 10 d, read-out: Wheat plant response rating
  plant injury at 125 g/ha: 0%
[14]; Postemergence, 31 g ai/ha, visual injury after approx. 10 d, 0 to 100 scale, 0 no effect, 100 complete control, read-out: Plant response rating, Wheat
  plant injury at 31 g/ha: 0%
[15]
  pest or weed control at 250 g/ha: 60%
[16]
  pest or weed control at 250 g/ha: 85%
Rice (Oryra sativa)
  pest or weed control at 250 g/ha: 0%
[17]
  pest or weed control at 250 g/ha: 0%
